How the values were obtained:
[1] = Cytotoxicity against human MM1S cells at 50 ug/ml after 48 hrs by BrdU incorporation assay relative to control; format: functional; conditions: MM1.S, read-out: GI
HeLa [2] = assay: Cytotoxicity against human HeLa cells at 50 ug/ml after 72 hrs by BrdU incorporation assay relative to control; format: functional; conditions: read-out: GI
[3] = Cytotoxicity against human HSF cells at 50 ug/ml after 24 hrs by BrdU incorporation assay relative to control; format: cell-based; conditions: read-out: GI
[4] = Cytotoxicity against human MM1S cells at 50 ug/ml after 72 hrs by BrdU incorporation assay relative to control; format: functional; conditions: MM1.S, read-out: GI
[5] = Cytotoxicity against human MM1R cells at 50 ug/ml after 24 hrs by BrdU incorporation assay relative to control; format: functional; conditions: MM.1R, read-out: GI
[6] = Cytotoxicity against human HSF cells at 50 ug/ml after 48 hrs by BrdU incorporation assay relative to control; format: cell-based; conditions: read-out: GI
[7] = Cytotoxicity against human MM1R cells at 50 ug/ml after 48 hrs by BrdU incorporation assay relative to control; format: functional; conditions: MM.1R, read-out: GI
T47D [8] = assay: Cytotoxicity against human T47D cells at 50 ug/ml after 48 hrs by BrdU incorporation assay relative to control; format: functional; conditions: read-out: GI
T47D [9] = assay: Cytotoxicity against human T47D cells at 50 ug/ml after 72 hrs by BrdU incorporation assay relative to control; format: functional; conditions: read-out: GI
T47D [10] = assay: Cytotoxicity against human T47D cells at 50 ug/ml after 24 hrs by BrdU incorporation assay relative to control; format: functional; conditions: read-out: GI
[11] = Cytotoxicity against human HSF cells at 50 ug/ml after 72 hrs by BrdU incorporation assay relative to control; format: cell-based; conditions: read-out: GI
HeLa [12] = assay: Cytotoxicity against human HeLa cells at 50 ug/ml after 24 hrs by BrdU incorporation assay relative to control; format: functional; conditions: read-out: GI
[13] = Cytotoxicity against human MM1R cells at 50 ug/ml after 72 hrs by BrdU incorporation assay relative to control; format: functional; conditions: MM.1R, read-out: GI
[14] = Cytotoxicity against human MM1S cells at 50 ug/ml after 24 hrs by BrdU incorporation assay relative to control; format: functional; conditions: MM1.S, read-out: GI
HeLa [15] = assay: Cytotoxicity against human HeLa cells at 50 ug/ml after 48 hrs by BrdU incorporation assay relative to control; format: functional; conditions: read-out: GI
HeLa [16] = assay: Induction of necrosis in human HeLa cells at 50 ug/ml after 24 hrs by propidium iodide/Hoechst 33342 staining-based confocal microscopy (reference value: 5%); format: functional
[17] = Induction of apoptosis in human HSF cells at 50 ug/ml after 48 hrs by propidium iodide/Hoechst 33342 staining-based confocal microscopy (reference value: 5%); format: cell-based
HeLa [18] = assay: Induction of apoptosis in human HeLa cells at 50 ug/ml after 72 hrs by propidium iodide/Hoechst 33342 staining-based confocal microscopy (reference value: 5%); format: functional
T47D [19] = assay: Induction of apoptosis in human T47D cells at 50 ug/ml after 48 hrs by propidium iodide/Hoechst 33342 staining-based confocal microscopy (reference value: 2%); format: functional
HeLa [20] = assay: Induction of apoptosis in human HeLa cells at 50 ug/ml after 24 hrs by propidium iodide/Hoechst 33342 staining-based confocal microscopy (reference value: 2%); format: functional
T47D [21] = assay: Induction of necrosis in human T47D cells at 50 ug/ml after 48 hrs by propidium iodide/Hoechst 33342 staining-based confocal microscopy (reference value: 8%); format: functional
[22] = Induction of necrosis in human HSF cells at 50 ug/ml after 72 hrs by propidium iodide/Hoechst 33342 staining-based confocal microscopy (reference value: 5%); format: cell-based
T47D [23] = assay: Induction of necrosis in human T47D cells at 50 ug/ml after 24 hrs by propidium iodide/Hoechst 33342 staining-based confocal microscopy (reference value: 5%); format: functional
[24] = Induction of apoptosis in human HSF cells at 50 ug/ml after 24 hrs by propidium iodide/Hoechst 33342 staining-based confocal microscopy (reference value: 2%); format: cell-based
HeLa [25] = assay: Induction of necrosis in human HeLa cells at 50 ug/ml after 72 hrs by propidium iodide/Hoechst 33342 staining-based confocal microscopy (reference value: 10%); format: functional
[26] = Induction of necrosis in human HSF cells at 50 ug/ml after 48 hrs by propidium iodide/Hoechst 33342 staining-based confocal microscopy (reference value: 4%); format: cell-based
T47D [27] = assay: Induction of apoptosis in human T47D cells at 50 ug/ml after 72 hrs by propidium iodide/Hoechst 33342 staining-based confocal microscopy (reference value: 5%); format: functional
[28] = Induction of necrosis in human HSF cells at 50 ug/ml after 24 hrs by propidium iodide/Hoechst 33342 staining-based confocal microscopy (reference value: 2%); format: cell-based
HeLa [29] = assay: Induction of necrosis in human HeLa cells at 50 ug/ml after 48 hrs by propidium iodide/Hoechst 33342 staining-based confocal microscopy (reference value: 10%); format: functional
T47D [30] = assay: Induction of apoptosis in human T47D cells at 50 ug/ml after 24 hrs by propidium iodide/Hoechst 33342 staining-based confocal microscopy (reference value: 2%); format: functional
T47D [31] = assay: Induction of necrosis in human T47D cells at 50 ug/ml after 72 hrs by propidium iodide/Hoechst 33342 staining-based confocal microscopy (reference value: 10%); format: functional
HeLa [32] = assay: Induction of apoptosis in human HeLa cells at 50 ug/ml after 48 hrs by propidium iodide/Hoechst 33342 staining-based confocal microscopy (reference value: 5%); format: functional
[33] = Induction of apoptosis in human HSF cells at 50 ug/ml after 72 hrs by propidium iodide/Hoechst 33342 staining-based confocal microscopy (reference value: 5%); format: cell-based

Row | Structure (SMILES) | inhibition of growth at 50 µg/mL [1] [%] | inhibition of growth at 50 µg/mL (HeLa [2]) [%] | inhibition at 24 h, 50 ug/ml [3] [%] | inhibition of growth at 50 µg/mL [4] [%] | inhibition of growth at 50 µg/mL [5] [%] | inhibition at 48 h, 50 ug/ml [6] [%] | inhibition of growth at 50 µg/mL [7] [%] | inhibition of growth at 50 µg/mL (T47D [8]) [%] | inhibition of growth at 50 µg/mL (T47D [9]) [%] | inhibition of growth at 50 µg/mL (T47D [10]) [%] | inhibition at 72 h, 50 ug/ml [11] [%] | inhibition of growth at 50 µg/mL (HeLa [12]) [%] | inhibition of growth at 50 µg/mL [13] [%] | inhibition of growth at 50 µg/mL [14] [%] | inhibition of growth at 50 µg/mL (HeLa [15]) [%] | further results
1 | CCOC(=O)Cc1nnc2n(c1=O)CCN2c1ccc(C)cc1 | 60 | 70 | 50 | 70 | 60 | 75 | 70 | 75 | 80 | 25 | 80 | 20 | 75 | 50 | 70 | 
2 | CCOC(=O)Cc1nnc2n(c1=O)CCN2c1cccc(Cl)c1 | 60 | 50 | 10 | 80 | 80 | 10 | 85 | 55 | 55 | 55 | 10 | 10 | 90 | 55 | 50 | Activity (HeLa [16]): 10%; Activity [17]: 5%; Activity (HeLa [18]): 15%; Activity (T47D [19]): 20%; Activity (HeLa [20]): 10%; Activity (T47D [21]): 50%; Activity [22]: 10%; Activity (T47D [23]): 25%; Activity [24]: 5%; Activity (HeLa [25]): 50%; Activity [26]: 10%; Activity (T47D [27]): 20%; Activity [28]: 10%; Activity (HeLa [29]): 50%; Activity (T47D [30]): 10%; Activity (T47D [31]): 55%; Activity (HeLa [32]): 15%; Activity [33]: 10%
3 | CCOC(=O)C/C(=N\N=C1/NCCN1c1cccc(Cl)c1)C(=O)OCC | 65 | 45 | 70 | 80 | 70 | 90 | 75 | 85 | 90 | 80 | 90 | 5 | 80 | 40 | 25 | 
4 | CCOC(=O)C/C(=N\N=C1/NCCN1c1ccc(Cl)cc1)C(=O)OCC | 75 | 55 | 70 | 90 | 65 | 90 | 80 | 85 | 90 | 80 | 90 | 10 | 90 | 65 | 30 | 
5 | CCOC(=O)C/C(=N\N=C1/NCCN1c1ccc(Cl)c(Cl)c1)C(=O)OCC | 80 | 60 | 70 | 90 | 70 | 90 | 80 | 95 | 100 | 80 | 90 | 50 | 80 | 70 | 50 | 
6 | CCOC(=O)Cc1nnc2n(c1=O)CCN2c1ccccc1OC | 55 | 50 | 50 | 85 | 75 | 80 | 80 | 35 | 40 | 30 | 80 | 10 | 95 | 45 | 45 | 
7 | CCOC(=O)C/C(=N\N=C1/NCCN1c1ccc(C)cc1)C(=O)OCC | 70 | 50 | 70 | 85 | 75 | 80 | 90 | 75 | 80 | 50 | 80 | 5 | 95 | 55 | 45 | 

Source: ChEMBL document CHEMBL3091361, “Synthesis, structure elucidation and in vitro anticancer activities of novel derivatives of diethyl (2E)-2-[(2E)-(1-arylimidazolidin-2-ylidene)hydrazono]succinate and ethyl (4-oxo-8-aryl-4,6,7,8-tetrahydroimidazo[2,1-c][1,2,4]triazin-3-yl)acetate” (Bioorg Med Chem, 2013)
